Test results reported in patent publication US20030166692A1, “Composition useful as anticancer drug and radiosensitizer” (PHARMGENIA CO., LTD. of Developmental Genetics Laboratory,, priority 2002, published 2003).

What was measured:
[1] = tested on: human NCI-H460 lung cancer cell line; assay: MTT survival of NCI-H460 cancer cells after treatment with the compound of formula I; format: cell-based; details: for The survival rate of cancer cells: MTT, relative to DMSO control
Method: (§1) In this Example, the effect of the compound of formula I as an anticancer agent was evaluated in vitro using human NCI-H460 and SNU638 cancer cell lines.
(§2) The inventor purchased the compound of formula I from ChemBridge Corporation (San Diego, Calif.). Human NCI-H460 lung cancer cell line was obtained from ATCC (American Type Culture Collection), while human SNU638 gastric cancer cell line from KCLB (Korean Cell Line Bank).
(§3) Under […] at 37° C., the human NCI-H460 and SNU638 cancer cell lines were incubated for 4 days in RPMI1640 culture medium (GIBCO/BRL, Grand Island, N.Y.) containing 10% calf fetus serum, penicillin 100 units/ml, and streptomycin 100 μg/ml.
(§4) In the case of the NCI-H460 cell line, the compound of formula I was dissolved in DMSO (dimethyl sulfoxide) in order to make its concentration 0.1 ng/ml, 1 ng/ml, 10 ng/ml, 100 ng/ml, 1,000 ng/ml and 10,000 ng/ml, respectively. During incubation, the NCI-H460 cells were treated with each concentration of the compound of formula I, respectively.
(§5) Then, any surviving cancer cells were dyed with MTT [3-(4,5-dimethylthiazol-2-yl)-2,5-diphenyltetrazolium bromide] and quantified at 540 nm with a microplate reader.
(§6) Following Tables 1 and 2, and FIGS. 1 and 2, respectively show the survival rate of cancer cells, based on relative absorbance rate in reference to control (i.e. cancer cells treated with DMSO only). […] When treated with 1,000 ng/ml of the compound of formula I, about 80% (in the case of the NCI-H460 cell line) and 94% (in the case of the SNU638 cell line) of cancer cells were killed.

[2] = tested on: human NCI-H460 lung cancer cell line; assay: Colony formation of NCI-H460 cells, compound followed by γ-irradiation; format: cell-based; details: for The survival rate of cancer cells (combination therapy): colony formation vs un-irradiated compound-treated cells
Method: (§7) Using the same method as described in Example 1, human A549 and NCI-H460 lung cancer cell lines (obtained from ATCC) were incubated in RPMI1640 culture medium.
(§8) Then, cancer cells were collected and placed into 60 mm (in diameter) petri dishes, 300 cells per petri dish. After the cancer cells were incubated in water-containing CO2 incubator at 37° C. for 24 hours, 1 ng/ml and 0.1 ng/ml of the compound of formula I dissolved in DMSO were treated to human NCI-H460 and A549 cells, respectively. Four (4) hours later, the cancer cells were irradiated with a different amount of γ-rays using ^137Cs γ-rays source (Atomic Energy of Canada, Ltd., Canada). After cultivated for 10 days, the colonies were dyed with 1% methylene blue. Colonies having diameters of 200 μm or more were counted using Colony Counter (Imaging Products, Chantilly, Va.).
(§9) The results regarding colony formation are shown in the following Tables 3 and 4, and FIGS. 3 and 4.

[3] = tested on: human SNU638 gastric cancer cell line; assay: MTT survival of SNU638 cancer cells after treatment with the compound of formula I; format: cell-based; details: for The survival rate of cancer cells: MTT, relative to DMSO control
Method: as §1, §2, §3
as §4, with “SNU638” for “NCI-H460”, “DMSO” for “DMSO (dimethyl sulfoxide)”, “concentration” for “concentration 0.1 ng/ml,”
as §5, §6

[4] = tested on: human A549 lung cancer cell line; assay: Colony formation of A549 cells, compound followed by γ-irradiation; format: cell-based; details: for The survival rate of cancer cells (combination therapy): colony formation vs un-irradiated compound-treated cells
Method: as §7, §8, §9

[5] = tested on: NCI-H460 cells transplanted into mice; assay: Tumor volume of NCI-H460 cells transplanted into mice; format: in vivo
Method: Six (6) week old mice of BALB/cAnNCrj-nu/nu strain, which were obtained from Chales River Japan Inc. (Japan), were subcutaneously injected lung cancer cells (NCI-H460 cell line, 5×10^6 cells) to develop tumors.
Mice were selected whose tumor volume reached 120 mm^3, and subdivided into 4 groups each having 5 mice: Group 1 (control, treated with DMSO); Group 2 (treated only with 10 mg/kg of the compound of formula I); Group 3 (treated only with 5 Gy of irradiation); and Group 4 (treated with 10 mg/kg of the compound of formula I and 5 Gy of irradiation).
Five (5) times with 5 day intervals between each time, DMSO or the compound of formula I was subcutaneously injected to the mice of Groups 1, 2 and 4, and γ-rays were irradiated to the mice of Groups 3 and 4.
The compound of formula I was dissolved in DMSO to make its concentration 5 mg/ml. 40 μl of DMSO and the compound of formula I each were administered to Groups 1, 2 and 4, respectively. The mice of Group 4 were subcutaneously injected with the compound of formula I, and 4 hours later followed by irradiation. The change of tumor volume in each Group was observed 11 times with 3 to 5 days of interval for 42 days.

CSC(=S)N/N=C(\c1ccccc1)c1ccccn1 [compound of formula I, N′-(phenyl-pyridin-2-yl-methylene)-hydrazine carbodithioic acid methyl ester]
The survival rate of cancer cells ([1]; 0.1 ng/ml): 90.2% | cancer cells killed ([1]; 1 ng/ml): about 12% | The survival rate of cancer cells ([1]; 1 ng/ml): 87.7% | The survival rate of cancer cells ([1]; 10 ng/ml): 51.3% | The survival rate of cancer cells ([1]; 100 ng/ml): 36.6% | cancer cells killed ([1]; 1,000 ng/ml): about 80% | The survival rate of cancer cells ([1]; 1,000 ng/ml): 20% | The survival rate of cancer cells ([1]; 10,000 ng/ml): 2% | The survival rate of cancer cells (combination therapy) ([2]; 1 ng/ml compound then 1 Gy): 37.5% | The survival rate of cancer cells (combination therapy) ([2]; 1 ng/ml compound then 3 Gy): 9% | The survival rate of cancer cells (combination therapy) ([2]; 1 ng/ml compound then 5 Gy): 1% | The survival rate of cancer cells (combination therapy) ([2]; 1 ng/ml compound then 7 Gy): 0.01% | cancer cells killed ([2]; 1 ng/ml followed by 1 Gy, in comparison with 1 ng/ml and no irradiation): 62.5% | enhanced anticancer effect in comparison with 1 Gy of irradiation ([2]; 1 ng/ml in combination with 1 Gy): 27.5% | radio-enhanced cancer treatment effect ([2]; 1 Gy or more irradiated, 1 ng/ml): significantly effective | cancer cells killed ([3]; 1 ng/ml): ~35% | The survival rate of cancer cells ([3]; 1 ng/ml): 64.46% | The survival rate of cancer cells ([3]; 10 ng/ml): 53.22% | The survival rate of cancer cells ([3]; 100 ng/ml): 46.41% | cancer cells killed ([3]; 1,000 ng/ml): ~94% | The survival rate of cancer cells ([3]; 1,000 ng/ml): 5.71% | The survival rate of cancer cells ([3]; 10,000 ng/ml): 3.87% | The survival rate of cancer cells (combination therapy) ([4]; 0.1 ng/ml compound then 1 Gy): 53% | The survival rate of cancer cells (combination therapy) ([4]; 0.1 ng/ml compound then 3 Gy): 10% | The survival rate of cancer cells (combination therapy) ([4]; 0.1 ng/ml compound then 5 Gy): 2% | The survival rate of cancer cells (combination therapy) ([4]; 0.1 ng/ml compound then 7 Gy): 1% | cancer cells killed ([4]; 0.1 ng/ml followed by 1 Gy, in comparison with 0.1 ng/ml and no irradiation): 47% | increased anticancer effect in comparison with 1 Gy of irradiation only ([4]; 0.1 ng/ml in combination with 1 Gy): 32% | radio-enhanced cancer treatment effect ([4]; 1 Gy or more irradiated, 0.1 ng/ml): significantly effective | tumor volume ([5]; Combination: 10 mg/kg s.c. + 5 Gy irradiation, 10 days): 133 mm^3 | tumor volume ([5]; Combination: 10 mg/kg s.c. + 5 Gy irradiation, 13 days): 268 mm^3 | tumor volume ([5]; Combination: 10 mg/kg s.c. + 5 Gy irradiation, 18 days): 379 mm^3 | tumor volume ([5]; Combination: 10 mg/kg s.c. + 5 Gy irradiation, 21 days): 539 mm^3 | tumor volume ([5]; Combination: 10 mg/kg s.c. + 5 Gy irradiation, 24 days): 710 mm^3 | tumor volume ([5]; Combination: 10 mg/kg s.c. + 5 Gy irradiation, 26 days): 760 mm^3 | tumor volume ([5]; Combination: 10 mg/kg s.c. + 5 Gy irradiation, 29 days): 862 mm^3 | tumor volume ([5]; Combination: 10 mg/kg s.c. + 5 Gy irradiation, 33 days): 950 mm^3 | tumor volume ([5]; Combination: 10 mg/kg s.c. + 5 Gy irradiation, 36 days): 1,086 mm^3 | tumor volume ([5]; Combination: 10 mg/kg s.c. + 5 Gy irradiation, 39 days): 1,079 mm^3 | tumor volume ([5]; Combination: 10 mg/kg s.c. + 5 Gy irradiation, 42 days): 1,164 mm^3 | increase rate of the tumor volume ([5]; Group 2 (compound only, 10 mg/kg) vs Group 1 (control)): much lower than in Group 1 | increase in tumor volume ([5]; Group 4 (compound + 5 Gy irradiation) compared to Group 3 (irradiation only)): little increase in tumor volume | tumor volume ([5]; compound only, 10 mg/kg s.c., 10 days): 179 mm^3 | tumor volume ([5]; compound only, 10 mg/kg s.c., 13 days): 258 mm^3 | tumor volume ([5]; compound only, 10 mg/kg s.c., 18 days): 614 mm^3 | tumor volume ([5]; compound only, 10 mg/kg s.c., 21 days): 923 mm^3 | tumor volume ([5]; compound only, 10 mg/kg s.c., 24 days): 1,274 mm^3 | tumor volume ([5]; compound only, 10 mg/kg s.c., 26 days): 1,766 mm^3 | tumor volume ([5]; compound only, 10 mg/kg s.c., 29 days): 2,211 mm^3 | tumor volume ([5]; compound only, 10 mg/kg s.c., 33 days): 2,759 mm^3 | tumor volume ([5]; compound only, 10 mg/kg s.c., 36 days): 3,374 mm^3 | tumor volume ([5]; compound only, 10 mg/kg s.c., 39 days): 3,787 mm^3 | tumor volume ([5]; compound only, 10 mg/kg s.c., 42 days): 4,133 mm^3
